Laboratory results published in US4272437A, “Antibacterial agents, and 4-thio azetidinone intermediates” (priority 1979, dated 1981).
≈ marks a conversion by molar mass, not a printed value. Structures can show the parent of a compound that is named as a salt. Where two headings read alike, the source gives them in different places.

How the values were obtained:
Str. pneumoniae A-9585 = assay: MIC, tube dilution, Streptococcus pneumoniae A9585; type: cell-based; settings: Streptococcus pneumoniae, A9585, Str. pneumoniae A9585; overnight 37° C., Nutrient Broth; read-out: Minimum Inhibitory Concentration (M.I.C.)
Text: (§1) Representative compounds of the present invention were subjected to in vitro antibiotic screening against a variety of microorganisms.

Str. pyogenes A-9604 = assay: MIC, tube dilution, Streptococcus pyogenes A9604; type: cell-based; settings: Streptococcus pyogenes, A9604, Str. pyogenes A9604; overnight 37° C., Nutrient Broth; read-out: Minimum Inhibitory Concentration (M.I.C.)
Text: as §1

Staph. aureus A-9537 = assay: MIC, tube dilution, Staphylococcus aureus A9537; type: cell-based; settings: Staphylococcus aureus, A9537, Staph. aureus A9537; overnight 37° C., Nutrient Broth; read-out: Minimum Inhibitory Concentration (M.I.C.)
Text: as §1

[1] = test system: Staph. aureus A-9537 and 50% serum; assay: MIC, tube dilution, Staph. aureus A9537 + 50% serum; type: cell-based, Staphylococcus aureus; settings: Staphylococcus aureus, overnight 37° C., read-out: Minimum Inhibitory Concentration (M.I.C.)
Text: as §1

[2] = test system: Staph. aureus (Pen-Res) A-9606; assay: MIC, tube dilution, Staphylococcus aureus A9606 (Pen-Res); type: cell-based; settings: Staphylococcus aureus, overnight 37° C.
Text: as §1

[3] = test system: Staph. aureus (Meth-Res) A-15097; assay: MIC, tube dilution, Staphylococcus aureus A15097 (Meth-Res); type: cell-based; settings: Staphylococcus aureus, overnight 37° C.
Text: as §1

Str. faecalis A-20688 = assay: MIC, tube dilution, Streptococcus faecalis A20688; type: cell-based; settings: Enterococcus faecalis, A20688, Str. faecalis A20688; overnight 37° C.; read-out: Minimum Inhibitory Concentration (M.I.C.)
Text: as §1

E. coli A-15119 = assay: MIC, tube dilution, Escherichia coli A15119; type: cell-based; settings: Escherichia coli, A15119, E. coli A15119; overnight 37° C.; read-out: Minimum Inhibitory Concentration (M.I.C.)
Text: as §1

E. coli A-20341-1 = assay: MIC, tube dilution, Escherichia coli A20341-1; type: cell-based
Text: as §1

K. pneumoniae A-15130 = assay: MIC, tube dilution, Klebsiella pneumoniae A15130; type: cell-based; settings: Klebsiella pneumoniae, A15130, K. pneumoniae A15130; overnight 37° C.; read-out: Minimum Inhibitory Concentration (M.I.C.)
Text: as §1

[4] = test system: Klebsiella species A20468; assay: MIC, tube dilution, Klebsiella species A20468; type: cell-based; settings: Klebsiella species (K. pneumoniae) A20468; overnight 37° C.; read-out: Minimum Inhibitory Concentration (M.I.C.)
Text: as §1

Pr. mirabilis A-9900 = assay: MIC, tube dilution, Proteus mirabilis A9900; type: cell-based; settings: Proteus mirabilis, A9900, Proteus mirabilis A9900; overnight 37° C.; read-out: Minimum Inhibitory Concentration (M.I.C.)
Text: as §1

Pr. morganii A-15153 = assay: MIC, tube dilution, Proteus morganii A15153; type: cell-based; settings: Morganella morganii, A15153, Proteus morganii A15153; overnight 37° C.; read-out: Minimum Inhibitory Concentration (M.I.C.)
Text: as §1

Ser. marcescens A-20019 = assay: MIC, tube dilution, Serratia marcescens A20019; type: cell-based; settings: Serratia marcescens, A20019, Serratia marcescens A20019; overnight 37° C.; read-out: Minimum Inhibitory Concentration (M.I.C.)
Text: as §1

Ent. cloacae A-9659 = assay: MIC, tube dilution, Enterobacter cloacae A9659; type: cell-based; settings: Enterobacter cloacae, A9659, Enterobacter cloacae A9659; overnight 37° C.; read-out: Minimum Inhibitory Concentration (M.I.C.)
Text: as §1

Ent. cloacae A-9656 = assay: MIC, tube dilution, Enterobacter cloacae A9656; type: cell-based; settings: overnight 37° C., read-out: Minimum Inhibitory Concentration (M.I.C.)
Text: as §1

Ps. aeruginosa A-9843A = assay: MIC, tube dilution, Pseudomonas aeruginosa A9843A; type: cell-based; settings: Pseudomonas aeruginosa, A9843A, read-out: Minimum Inhibitory Concentration (M.I.C.), Pseudomonas aeruginosa A9843A; overnight 37° C.
Text: as §1

Ps. aeruginosa A-21213 = assay: MIC, tube dilution, Pseudomonas aeruginosa A21213; type: cell-based; settings: overnight 37° C., read-out: Minimum Inhibitory Concentration (M.I.C.)
Text: as §1

Proteus rettgeri A21203 = assay: MIC, tube dilution, Proteus rettgeri A21203; type: cell-based; settings: Providencia rettgeri, overnight 37° C., read-out: Minimum Inhibitory Concentration (M.I.C.)
Text: as §1

Proteus vulgaris A21559 = assay: MIC, tube dilution, Proteus vulgaris A21559; type: cell-based; settings: Proteus vulgaris
Text: as §1

[5] = Staph. aureus A9606 (Pen-Res), read-out: Minimum Inhibitory Concentration (M.I.C.)
[6] = Staph. aureus A15097 (Meth-Res), read-out: Minimum Inhibitory Concentration (M.I.C.)
[7] = Escherichia coli, A203411; E. coli A20341-1; overnight 37° C.; read-out: Minimum Inhibitory Concentration (M.I.C.)
[8] = Enterobacter cloacae, A9656, Enterobacter cloacae A9656
[9] = A21203, Proteus rettgeri A21203
[10] = A21559, Proteus vulgaris A21559, overnight 37° C., read-out: Minimum Inhibitory Concentration (M.I.C.)
[11] = read-out: Minimum Inhibitory Concentration (M.I.C.), Staph. aureus A15097 (Meth-Res)
[12] = A21559, read-out: Minimum Inhibitory Concentration (M.I.C.)

O=C(O)C1=C(Cn2cnnn2)SC2CC(=O)N12 (stereo not shown) [Example 76, Sodium 2-(1H-Tetrazolemethyl)-penem-3-carboxylate]
MIC (Str. pneumoniae A-9585): 0.03 µg/mL | MIC (Str. pyogenes A-9604): 0.5 µg/mL | MIC (Staph. aureus A-9537): 1 µg/mL | MIC [1]: > 63 µg/mL | MIC [2, 5]: 4 µg/mL | MIC [3, 6]: 8 µg/mL | MIC (Str. faecalis A-20688): 125 µg/mL | MIC (E. coli A-15119): 4 µg/mL | MIC (E. coli A-20341-1; [7]): > 125 µg/mL | MIC (K. pneumoniae A-15130): 63 µg/mL | MIC [4]: > 125 µg/mL | MIC (Pr. mirabilis A-9900): 8 µg/mL | MIC (Pr. morganii A-15153): 16 µg/mL | MIC (Ser. marcescens A-20019): 16 µg/mL | MIC (Ent. cloacae A-9659): 16 µg/mL | MIC (Ent. cloacae A-9656; [8]): 16 µg/mL | MIC (Ps. aeruginosa A-9843A): > 125 µg/mL | MIC (Ps. aeruginosa A-21213; Pseudomonas aeruginosa A21213): > 125 µg/mL | MIC (Proteus rettgeri A21203; [9]): 8 µg/mL | MIC (Proteus vulgaris A21559; [10]): 8 µg/mL

CC[C@@H](O)[C@H]1C(=O)N2C(C(=O)O)=C(C)S[C@H]12 (relative stereo) [Example 94, (1'R,5R,6S and 1'S,5S,6R) 6-(1'-Hydroxy-1'-propyl)-2-methylpenem-3carboxylic acid, sodium and potassium salts (isomer B)]
MIC (Str. pneumoniae A-9585): 1 µg/mL | MIC (Str. pyogenes A-9604): 16 µg/mL | MIC (Staph. aureus A-9537): 32 µg/mL | MIC [1]: > 63 µg/mL | MIC [2, 5]: 32 µg/mL | MIC [3, 11]: > 125 µg/mL | MIC (Str. faecalis A-20688): > 125 µg/mL | MIC (E. coli A-15119): > 125 µg/mL | MIC (E. coli A-20341-1; [7]): > 125 µg/mL | MIC (K. pneumoniae A-15130): > 125 µg/mL | MIC [4]: > 125 µg/mL | MIC (Pr. mirabilis A-9900): > 125 µg/mL | MIC (Pr. morganii A-15153): > 125 µg/mL | MIC (Ser. marcescens A-20019): > 125 µg/mL | MIC (Ent. cloacae A-9659): > 125 µg/mL | MIC (Ent. cloacae A-9656; Enterobacter cloacae A9656): > 125 µg/mL | MIC (Ps. aeruginosa A-9843A): > 125 µg/mL | MIC (Ps. aeruginosa A-21213; Pseudomonas aeruginosa A21213): > 125 µg/mL | MIC (Proteus rettgeri A21203; Proteus rettgeri A21203): > 125 µg/mL | MIC (Proteus vulgaris A21559; [12]): > 125 µg/mL

Cc1cc(C)n(CC2=C(C(=O)O)N3C(=O)CC3S2)n1 (stereo not shown) [Example 77, Sodium 2-(3,5-Dimethyl-1H-pyrazolemethyl)-penem-3-carboxylate]
MIC (Str. pneumoniae A-9585): 0.03 µg/mL | MIC (Str. pyogenes A-9604): 0.5 µg/mL | MIC (Staph. aureus A-9537): 0.13 µg/mL | MIC [1]: > 63 µg/mL | MIC [2, 5]: 4 µg/mL | MIC [3, 6]: 16 µg/mL | MIC (Str. faecalis A-20688): 125 µg/mL | MIC (E. coli A-15119): 4 µg/mL | MIC (E. coli A-20341-1; [7]): > 125 µg/mL | MIC (K. pneumoniae A-15130): > 125 µg/mL | MIC [4]: > 125 µg/mL | MIC (Pr. mirabilis A-9900): 2 µg/mL | MIC (Pr. morganii A-15153): 16 µg/mL | MIC (Ser. marcescens A-20019): > 125 µg/mL | MIC (Ent. cloacae A-9659): > 125 µg/mL | MIC (Ent. cloacae A-9656; Enterobacter cloacae A9656): 125 µg/mL | MIC (Ps. aeruginosa A-9843A): > 125 µg/mL | MIC (Ps. aeruginosa A-21213; Pseudomonas aeruginosa A21213): > 125 µg/mL | MIC (Proteus rettgeri A21203; Proteus rettgeri A21203): > 125 µg/mL | MIC (Proteus vulgaris A21559; [10]): 63 µg/mL

NCCSCC1=C(C(=O)O)N2C(=O)CC2S1 (stereo not shown) [Example 88, 2-(2-Aminoethylthiomethyl)penem-3-carboxylic Acid]
MIC (Str. pneumoniae A-9585): 0.13 µg/mL (≈ 0.499 µM) | MIC (Str. pyogenes A-9604): 0.13 µg/mL (≈ 0.499 µM) | MIC (Staph. aureus A-9537): 0.13 µg/mL (≈ 0.499 µM) | MIC [1]: 0.5 µg/mL | MIC [2, 5]: 16 µg/mL (≈ 61.5 µM) | MIC [3, 6]: 16 µg/mL (≈ 61.5 µM) | MIC (Str. faecalis A-20688): 63 µg/mL (≈ 242 µM) | MIC (E. coli A-15119): 4 µg/mL (≈ 15.4 µM) | MIC (E. coli A-20341-1; Escherichia coli, A203411, E. coli A20341-1; overnight 37° C.; read-out: Minimum Inhibitory Concentration (M.I.C.)): 16 µg/mL (≈ 61.5 µM) | MIC (K. pneumoniae A-15130): 8 µg/mL (≈ 30.7 µM) | MIC [4]: > 63 µg/mL | MIC (Pr. mirabilis A-9900): 4 µg/mL (≈ 15.4 µM) | MIC (Pr. morganii A-15153): 8 µg/mL (≈ 30.7 µM) | MIC (Ser. marcescens A-20019): 8 µg/mL (≈ 30.7 µM) | MIC (Ent. cloacae A-9659): 32 µg/mL (≈ 123 µM) | MIC (Ent. cloacae A-9656; [8]): 32 µg/mL (≈ 123 µM) | MIC (Ps. aeruginosa A-9843A): 63 µg/mL (≈ 242 µM) | MIC (Ps. aeruginosa A-21213; Pseudomonas aeruginosa, A21213, Pseudomonas aeruginosa A21213): > 63 µg/mL | MIC (Proteus rettgeri A21203; [9]): 8 µg/mL (≈ 30.7 µM) | MIC (Proteus vulgaris A21559; [10]): 16 µg/mL (≈ 61.5 µM)

CC1=C(C(=O)O)N2C(=O)[C@H]([C@H](O)Cc3ccccc3)[C@H]2S1 (relative stereo) [Example 95, (1'R,5R,6S and 1'S,5S,6R) 6-(1'-Hydroxy-2'-phenylethyl)-2-methylpenem-3-carboxylic acid (isomer B)]
MIC (Str. pneumoniae A-9585): 32 µg/mL (≈ 105 µM) | MIC (Str. pyogenes A-9604): 32 µg/mL (≈ 105 µM) | MIC (Staph. aureus A-9537): 125 µg/mL (≈ 409 µM) | MIC [1]: > 63 µg/mL | MIC ([2]; read-out: Minimum Inhibitory Concentration (M.I.C.), Staph. aureus A9606 (Pen-Res)): > 125 µg/mL | MIC [3, 11]: > 125 µg/mL | MIC (Str. faecalis A-20688): > 125 µg/mL | MIC (E. coli A-15119): > 125 µg/mL | MIC (E. coli A-20341-1; [7]): > 125 µg/mL | MIC (K. pneumoniae A-15130): > 125 µg/mL | MIC [4]: > 125 µg/mL | MIC (Pr. mirabilis A-9900): > 125 µg/mL | MIC (Pr. morganii A-15153): > 125 µg/mL | MIC (Ser. marcescens A-20019): > 125 µg/mL | MIC (Ent. cloacae A-9659): > 125 µg/mL | MIC (Ent. cloacae A-9656; Enterobacter cloacae A9656): > 125 µg/mL | MIC (Ps. aeruginosa A-9843A): > 125 µg/mL | MIC (Ps. aeruginosa A-21213; Pseudomonas aeruginosa A21213): > 125 µg/mL | MIC (Proteus rettgeri A21203; Proteus rettgeri A21203): > 125 µg/mL | MIC (Proteus vulgaris A21559; [12]): > 125 µg/mL
